Experimental findings from the NIST ThermoML archive (doi:10.1016/j.fluid.2014.11.020) are described below.

The data set in a line: activity coefficient (dimensionless); of the first substance listed, at infinite dilution; xn = mol fraction of the nth substance listed. The following applies: Liquid, Chromatography, x1 = 0.

Numbers after ± are expanded uncertainties.

Consider `CCCCCCCCCCC` [undecane] + CCCCCCCCn1cc[n+](COCCCOC[n+]2ccn(CCCCCCCC)c2C)c1C.O=S(=O)([N-]S(=O)(=O)C(F)(F)F)C(F)(F)F.O=S(=O)([N-]S(=O)(=O)C(F)(F)F)C(F)(F)F, for which the activity coefficient reads like this: (323.15 K) 12.4 ± 0.85; (333.15 K) 11.1 ± 0.76; (343.15 K) 10.6 ± 0.72.
On the same counts, the results for `CCCC(C)=O` [pentan-2-one] + CCCOC[n+]1ccn(C)c1.F[B-](F)(F)F are 3.32 ± 0.23, 3.33 ± 0.23 and 3.31 ± 0.23.
On the same counts, the results for `Cc1ccc(C)cc1` [1,4-dimethylbenzene] + CCCOC[n+]1ccn(C)c1.O=S(=O)([N-]S(=O)(=O)C(F)(F)F)C(F)(F)F are 2.58 ± 0.18, 2.53 ± 0.17 and 2.52 ± 0.17.
For `C1CCCCC1` [cyclohexane] + CCCCCCCCn1cc[n+](COCCCOC[n+]2ccn(CCCCCCCC)c2C)c1C.O=S(=O)([N-]S(=O)(=O)C(F)(F)F)C(F)(F)F.O=S(=O)([N-]S(=O)(=O)C(F)(F)F)C(F)(F)F the same measures were 2.41 ± 0.16, 2.22 ± 0.15 and 2.11 ± 0.14.
For `CCCCCCCCC` [nonane] + CCCOC[n+]1ccn(Cc2ccccc2)c1.N#C[N-]C#N, the activity coefficient (323.15 K) stood at 110 ± 7.6, the activity coefficient (333.15 K) worked out at 93.6 ± 6.4 and the activity coefficient (343.15 K) was 76.2 ± 5.2.
On the same counts, the results for `ClC(Cl)(Cl)Cl` [tetrachloromethane] + CCCOC[n+]1ccn(C)c1.N#C[N-]C#N are 4.04 ± 0.28, 4.08 ± 0.28 and 4.39 ± 0.3.
For `CC(C)CO` [2-methyl-1-propanol] + CCCOC[n+]1ccc(N(C)C)cc1.O=S(=O)([N-]S(=O)(=O)C(F)(F)F)C(F)(F)F the same measures were 2.03 ± 0.14, 1.92 ± 0.13 and 1.73 ± 0.12.
In the case of `CC1CCCC1` [methylcyclopentane] + CCCOC[n+]1ccn(C)c1.N#C[N-]C#N, the activity coefficient was determined as 27.7 ± 1.9 (323.15 K) and 24.4 ± 1.7 (333.15 K).
As for `CCCCCCCCCC` [decane] + CCCOC[n+]1ccn(C)c1.N#C[N-]C#N, the activity coefficient reads like this: (323.15 K) 372 ± 26; (333.15 K) 356 ± 24; (343.15 K) 287 ± 20.
On the same counts, the results for `CCCCCCC` [heptane] + CCCOC[n+]1ccc(N(C)C)cc1.O=S(=O)([N-]S(=O)(=O)C(F)(F)F)C(F)(F)F are 15.8 ± 1.1, 14.8 ± 1 and 13.9 ± 0.95.
On the same counts, the results for `CCO` [ethanol] + Cn1cc[n+](COCCCOC[n+]2ccn(C)c2)c1.N#C[N-]C#N.N#C[N-]C#N are 0.78 ± 0.05, 0.76 ± 0.05 and 0.72 ± 0.05.
On the same counts, the results for `ClC(Cl)(Cl)Cl` [tetrachloromethane] + CCCCCCCCn1cc[n+](COCCCOC[n+]2ccn(CCCCCCCC)c2C)c1C.N#C[N-]C#N.N#C[N-]C#N are 1.11 ± 0.07, 1.12 ± 0.07 and 1.12 ± 0.07.
As to `CC#N` [acetonitrile] + Cn1cc[n+](COCCCOC[n+]2ccn(C)c2)c1.O=S(=O)([N-]S(=O)(=O)C(F)(F)F)C(F)(F)F.O=S(=O)([N-]S(=O)(=O)C(F)(F)F)C(F)(F)F, the activity coefficient came to 0.28 ± 0.03 (323.15 K), 0.28 ± 0.03 (333.15 K) and 0.24 ± 0.03 (343.15 K).
Consider `C[N+](=O)[O-]` [nitromethane] + CCCOC[n+]1ccn(Cc2ccccc2)c1.F[B-](F)(F)F, for which the activity coefficient reads like this: (323.15 K) 0.58 ± 0.04; (333.15 K) 0.57 ± 0.04; (343.15 K) 0.58 ± 0.04.
Turning to `c1ccsc1` [thiophene] + CCCOC[n+]1ccn(Cc2ccccc2)c1.F[B-](F)(F)F, the activity coefficient was 1.33 ± 0.09 (323.15 K), 1.27 ± 0.08 (333.15 K) and 1.25 ± 0.08 (343.15 K).
On the same counts, the results for `C[N+](=O)[O-]` [nitromethane] + CCCCCCCCn1cc[n+](COCCC)c1C.N#C[N-]C#N are 0.68 ± 0.05, 0.66 ± 0.05 and 0.63 ± 0.04.
Take `C[N+](=O)[O-]` [nitromethane] + CCCOC[n+]1ccc(N(C)C)cc1.O=S(=O)([N-]S(=O)(=O)C(F)(F)F)C(F)(F)F: the activity coefficient (323.15 K) was determined as 0.54 ± 0.04, the activity coefficient (333.15 K) amounted to 0.55 ± 0.04 and the activity coefficient (343.15 K) was 0.54 ± 0.04.
For the compound `CCCCCCCCCCC` [undecane] + CCCCCCCCn1cc[n+](COCCC)c1C.N#C[N-]C#N, the activity coefficient stood at 20.6 ± 1.4 (323.15 K), 19.6 ± 1.3 (333.15 K) and 18.2 ± 1.2 (343.15 K).
In the case of `C1COCCO1` [1,4-dioxane] + CCCOC[n+]1ccn(Cc2ccccc2)c1.O=S(=O)([N-]S(=O)(=O)C(F)(F)F)C(F)(F)F, the activity coefficient runs as follows: (323.15 K) 0.4 ± 0.03; (333.15 K) 0.36 ± 0.03; (343.15 K) 0.35 ± 0.03.
For `C#CCCCCC` [1-heptyne] + Cn1cc[n+](COCCCOC[n+]2ccn(C)c2)c1.N#C[N-]C#N.N#C[N-]C#N the same measures were 27.6 ± 1.9, 26.2 ± 1.8 and 26.1 ± 1.8.
For `CCCCCCCC` [octane] + CCCCCCCCn1cc[n+](COCCC)c1C.N#C[N-]C#N the same measures were 11 ± 0.75, 10.1 ± 0.69 and 9.94 ± 0.68.
Take `Cc1ccccc1C` [1,2-dimethylbenzene] + CCCCCCCCn1cc[n+](COCCC)c1C.N#C[N-]C#N: the activity coefficient is 1.33 ± 0.09 (323.15 K), 1.33 ± 0.09 (333.15 K) and 1.33 ± 0.09 (343.15 K).
On to `ClC(Cl)(Cl)Cl` [tetrachloromethane] + CCCOC[n+]1ccn(C)c1.F[B-](F)(F)F, for which the activity coefficient by setting is: (323.15 K) 8.91 ± 0.61; (333.15 K) 8.58 ± 0.59; (343.15 K) 8.19 ± 0.56.
On the same counts, the results for `CC(C)O` [propan-2-ol] + CCCCCCCCn1cc[n+](COCCCOC[n+]2ccn(CCCCCCCC)c2C)c1C.N#C[N-]C#N.N#C[N-]C#N are 0.4 ± 0.03, 0.38 ± 0.03 and 0.38 ± 0.03.
For `CC(C)O` [propan-2-ol] + CCCCCCCCn1cc[n+](COCCC)c1C.O=S(=O)([N-]S(=O)(=O)C(F)(F)F)C(F)(F)F, the activity coefficient by setting is: (323.15 K) 1.16 ± 0.07; (333.15 K) 1.05 ± 0.07; (343.15 K) 0.99 ± 0.06.
On the same counts, the results for `CC(C)O` [propan-2-ol] + CCCOC[n+]1ccn(C)c1.F[B-](F)(F)F are 2.91 ± 0.2, 2.7 ± 0.18 and 2.6 ± 0.18.
For `C#CCCCCC` [1-heptyne] + CCCCCCCCn1cc[n+](COCCCOC[n+]2ccn(CCCCCCCC)c2C)c1C.O=S(=O)([N-]S(=O)(=O)C(F)(F)F)C(F)(F)F.O=S(=O)([N-]S(=O)(=O)C(F)(F)F)C(F)(F)F, the activity coefficient runs as follows: (323.15 K) 1.4 ± 0.09; (333.15 K) 1.4 ± 0.09; (343.15 K) 1.41 ± 0.09.
Consider `CCO` [ethanol] + CCCCCCCCn1cc[n+](COCCC)c1C.O=S(=O)([N-]S(=O)(=O)C(F)(F)F)C(F)(F)F, for which the activity coefficient by setting is: (323.15 K) 1.12 ± 0.07; (333.15 K) 1.02 ± 0.06; (343.15 K) 0.94 ± 0.06.
On the same counts, the results for `C1COCCO1` [1,4-dioxane] + CN(C)c1cc[n+](COCCCOC[n+]2ccc(N(C)C)cc2)cc1.O=S(=O)([N-]S(=O)(=O)C(F)(F)F)C(F)(F)F.O=S(=O)([N-]S(=O)(=O)C(F)(F)F)C(F)(F)F are 0.44 ± 0.04, 0.45 ± 0.04 and 0.45 ± 0.04.
On the same counts, the results for `CCCO` [propan-1-ol] + CCCCCCCCn1cc[n+](COCCC)c1C.O=S(=O)([N-]S(=O)(=O)C(F)(F)F)C(F)(F)F are 1.16 ± 0.07, 1.06 ± 0.07 and 0.98 ± 0.06.
For `c1ccccc1` [benzene] + CCCOC[n+]1ccc(N(C)C)cc1.O=S(=O)([N-]S(=O)(=O)C(F)(F)F)C(F)(F)F the same measures were 0.74 ± 0.05, 0.78 ± 0.05 and 0.78 ± 0.05.
On to `CCN(CC)CC` [triethylamine] + Cn1cc[n+](COCCCOC[n+]2ccn(C)c2)c1.N#C[N-]C#N.N#C[N-]C#N, for which the activity coefficient (323.15 K) came out at 54.6 ± 3.7, the activity coefficient (333.15 K) worked out at 52.5 ± 3.6 and the activity coefficient (343.15 K) stood at 50.5 ± 3.5.
On the same counts, the results for `CCCCCCCCC` [nonane] + CN(C)c1cc[n+](COCCCOC[n+]2ccc(N(C)C)cc2)cc1.O=S(=O)([N-]S(=O)(=O)C(F)(F)F)C(F)(F)F.O=S(=O)([N-]S(=O)(=O)C(F)(F)F)C(F)(F)F are 60.7 ± 4.2, 52 ± 3.6 and 47.2 ± 3.2.
On the same counts, the results for `c1ccsc1` [thiophene] + CCCOC[n+]1ccn(Cc2ccccc2)c1.N#C[N-]C#N are 0.98 ± 0.06, 1.02 ± 0.06 and 1.04 ± 0.07.
For `CCC(=O)CC` [pentan-3-one] + CCCOC[n+]1ccn(C)c1.F[B-](F)(F)F the same measures were 3.34 ± 0.23, 3.36 ± 0.23 and 3.41 ± 0.23.
With `CCCCCCCCC` [nonane] + CCCCCCCCn1cc[n+](COCCCOC[n+]2ccn(CCCCCCCC)c2C)c1C.N#C[N-]C#N.N#C[N-]C#N, the activity coefficient was 17.1 ± 1.2 (323.15 K), 15.8 ± 1.1 (333.15 K) and 14.3 ± 0.98 (343.15 K).
For `c1ccncc1` [pyridine] + CCCCCCCCn1cc[n+](COCCCOC[n+]2ccn(CCCCCCCC)c2C)c1C.O=S(=O)([N-]S(=O)(=O)C(F)(F)F)C(F)(F)F.O=S(=O)([N-]S(=O)(=O)C(F)(F)F)C(F)(F)F the same measures were 0.13 ± 0.03, 0.14 ± 0.03 and 0.15 ± 0.03.
On the same counts, the results for `c1ccccc1` [benzene] + CCCOC[n+]1ccn(Cc2ccccc2)c1.O=S(=O)([N-]S(=O)(=O)C(F)(F)F)C(F)(F)F are 0.81 ± 0.05, 0.71 ± 0.05 and 0.71 ± 0.05.
